Measurements reported in publication PMC12446476 (Nature Communications, 2025).
“And” between values parts separate entries of the source, which are not always exact repeats. Equal entries are not always repeated. Where two headings read alike, the source gives them in different places.

Legend:
[1] = tested on: Salmonella typhimurium (TA1535, TA1537, TA98 and TA100); assay type: cell-based
Protocol: (§1) Ames assays were performed using four strains of Salmonella typhimurium (TA1535, TA1537, TA98 and TA100) and a single strain of E. coli (WRP2 uvrA) in the presence and absence of S9 tissue homogenate. Dose levels (µg/plate) up to 4000 were assessed for WP2 uvrA and TA98, 500 for TA1535, 250 for TA1537 and 62.5 for TA100.

E. coli WP2 uvrA = assay: Ames assay, E. coli strain; assay type: cell-based; details: with S9, positive control 1, 2 or 20 µg/plate
Protocol: as §1

[2] = tested on: intracellular N. gonorrhoeae; assay: Intracellular killing in HeLa229 cells; assay type: cell-based, Neisseria gonorrhoeae; details: dilution 0, replicates 1-3, counts 1-2
Protocol: Intracellular killing was assessed within HeLa229 cells (European Collection of Authenticated Cell Cultures, London, UK) that were seeded at ~3 × 10^5 cells/mL and grown to 70–80% confluence in RPMI-glutamine media supplemented with 10% (v/v) heat-inactivated fetal bovine serum (FBS, Gibco, MA, USA). Cells were incubated at 37 °C with 5% CO2 for 24 h, then washed with serum-free RPMI-1640 prior to infection. N. gonorrhoeae was scraped from agar plates and resuspended in Dulbecco’s Phosphate Buffered Saline (DPBS, Sigma-Aldrich), pelleted, then resuspended in RPMI with 2% FBS. Bacterial suspensions were used to infect HeLa229 cells at a multiplicity of infection of 100:1. Plates were briefly centrifuged (500 × g for 5 min), then incubated for one hour. This incubation and all subsequent incubations were performed at 37 °C with 5% CO2. Non-adherent cells were removed by washing with serum-free RPMI, and the remaining extracellular bacteria were killed via resuspension in RPMI-glutamine supplemented with 2% FBS and 200 μg/mL gentamycin and incubation for one hour. […] Azithromycin-treated samples were included for control/comparison. […] Samples were diluted and plated onto chocolate II agar for viable bacteria quantification. Intracellular killing assays were performed at Microbiologics, Kalamazoo, MI, USA, using a method adapted from previous studies[68],[69].

N. gonorrhoeae = assay: In vitro selection of mutants with reduced susceptibility; assay type: cell-based, Neisseria gonorrhoeae
Protocol: N. gonorrhoeae strains were grown overnight on chocolate agar plates, as described above. […] Plates were incubated at 35 ± 2 °C in a humid 5% CO2–enriched atmosphere for 48–72 h.

human lymphocytes = assay: In vitro micronucleus test; assay type: cell-based; details: for Micronucleated cells: 1000 scored cells
S. aureus ATCC 29213 = assay: S. aureus neutropenic murine thigh infection model; assay type: in vivo, mouse; details: ICR mice, 100 mg/kg PO, TID, 48h; 100 mg/kg
Protocol: The S. aureus neutropenic murine thigh infection model was performed in accordance with the Guide for Care and Use of Laboratory Animals[75]. Animal rooms were maintained at a temperature range of 20–24 °C and humidity between 30% and 70%, with 12 h light/dark cycles. Female ICR mice (BioLASCO Taiwan Co., Ltd.) were rendered neutropenic via IP injection of cyclophosphamide four days before infection (150 mg/kg) and again one day before infection (100 mg/kg). Animals were anaesthetised with isoflurane (3–5%), then inoculated intramuscularly with S. aureus ATCC 29213 (~1 × 10^5 CFU/mouse). […] Animals were sacrificed via CO2 asphyxiation at either 2 h (baseline), 26 and/or 50 h post-infection. Thigh tissues were harvested and homogenised in 3 mL sterile PBS (pH 7.4). Bacterial burdens were determined by performing 10-fold serial dilutions and plating on nutrient agar plates.

[3] = TA98, with S9, positive control 1, 2 or 20 µg/plate
[4] = TA100, with S9, positive control 1, 2 or 20 µg/plate
[5] = TA1535, with S9, positive control 1, 2 or 20 µg/plate
[6] = TA1537, with S9, positive control 1, 2 or 20 µg/plate
[7] = Suppl. Table 4, 31 h treatment, without S9, 31 h sampling, 0.08 µg/mL
[8] = Suppl. Table 5, 31 h treatment, without S9, 31 h sampling, 0.04 µg/mL
[9] = Suppl. Table 4, 3 h treatment, with S9, 32 h sampling, 15 µg/mL
[10] = Suppl. Table 5, 3 h treatment, with S9, 32.5 h sampling, 20 µg/mL

## Nc1ccc2cc3ccccc3cc2c1 [2-Aminoanthracene, reference compound]
[1]; [3]
  Ames bacterial mutation assessment, Mean: 515
  Colony count: 486 and 532 and 526
[1]; [4]
  Ames bacterial mutation assessment, Mean: 1256
  Colony count: 1316 and 1188 and 1256
[1]; [5]
  Ames bacterial mutation assessment, Mean: 104
  Colony count: 93 and 104 and 116
[1]; [6]
  Ames bacterial mutation assessment, Mean: 95
  Colony count: 90 and 94 and 102
E. coli WP2 uvrA
  Ames bacterial mutation assessment, Mean: 187
  Colony count: 181 and 184 and 195

## CC[C@H]1OC(=O)[C@H](C)[C@@H](O[C@H]2C[C@@](C)(OC)[C@@H](O)[C@H](C)O2)[C@H](C)[C@@H](O[C@@H]2O[C@H](C)C[C@H](N(C)C)[C@H]2O)[C@](C)(O)C[C@@H](C)CN(C)[C@H](C)[C@@H](O)[C@]1(C)O [Azithryomycin]
[2]; isolate ATCC 49226, 3 hr, 2X MIC
  Colony forming units (CFU) of N. gonorrhoeae internalised in HeLa229 cells, colony count: 19 CFU (2×) and 22 CFU and 27 CFU and 29 CFU and 32 CFU
[2]; isolate ATCC 49226, 3 hr, 4X MIC
  Colony forming units (CFU) of N. gonorrhoeae internalised in HeLa229 cells, colony count: 28 CFU and 29 CFU and 24 CFU (2×) and 32 CFU and 22 CFU
[2]; isolate ATCC 49226, 3 hr, 8X MIC
  Colony forming units (CFU) of N. gonorrhoeae internalised in HeLa229 cells, colony count: 20 CFU and 26 CFU and 27 CFU and 18 CFU and 28 CFU and 17 CFU
[2]; isolate ATCC 49226, 6 hr, 2X MIC
  Colony forming units (CFU) of N. gonorrhoeae internalised in HeLa229 cells, colony count: 1 CFU (3×) and 3 CFU and 2 CFU (2×)
[2]; isolate ATCC 49226, 6 hr, 4X MIC
  Colony forming units (CFU) of N. gonorrhoeae internalised in HeLa229 cells, colony count: 0 CFU (2×) and 1 CFU and 3 CFU (2×) and 5 CFU
[2]; isolate ATCC 49226, 6 hr, 8X MIC
  Colony forming units (CFU) of N. gonorrhoeae internalised in HeLa229 cells, colony count: 1 CFU (3×) and 2 CFU (3×)
[2]; isolate ATCC 49226, 10 hr, 2X MIC
  Colony forming units (CFU) of N. gonorrhoeae internalised in HeLa229 cells, colony count: 0 CFU
[2]; isolate ATCC 49226, 10 hr, 4X MIC
  Colony forming units (CFU) of N. gonorrhoeae internalised in HeLa229 cells, colony count: 0 CFU
[2]; isolate ATCC 49226, 10 hr, 8X MIC
  Colony forming units (CFU) of N. gonorrhoeae internalised in HeLa229 cells, colony count: 0 CFU
[2]; isolate ATCC 49226, 24 hr, 2X MIC
  Colony forming units (CFU) of N. gonorrhoeae internalised in HeLa229 cells, colony count: 0 CFU
[2]; isolate ATCC 49226, 24 hr, 4X MIC
  Colony forming units (CFU) of N. gonorrhoeae internalised in HeLa229 cells, colony count: 0 CFU
[2]; isolate ATCC 49226, 24 hr, 8X MIC
  Colony forming units (CFU) of N. gonorrhoeae internalised in HeLa229 cells, colony count: 0 CFU
[2]; isolate NCTC 13820, 3 hr, 2X MIC
  Colony forming units (CFU) of N. gonorrhoeae internalised in HeLa229 cells, colony count: 12 CFU and 15 CFU and 33 CFU and 32 CFU and 27 CFU and 29 CFU
[2]; isolate NCTC 13820, 3 hr, 4X MIC
  Colony forming units (CFU) of N. gonorrhoeae internalised in HeLa229 cells, colony count: 21 CFU and 16 CFU and 33 CFU and 30 CFU and 20 CFU and 27 CFU
[2]; isolate NCTC 13820, 3 hr, 8X MIC
  Colony forming units (CFU) of N. gonorrhoeae internalised in HeLa229 cells, colony count: 20 CFU and 13 CFU and 26 CFU and 30 CFU (2×) and 21 CFU
[2]; isolate NCTC 13820, 6 hr, 2X MIC
  Colony forming units (CFU) of N. gonorrhoeae internalised in HeLa229 cells, colony count: 0 CFU (2×) and 1 CFU (2×) and 3 CFU (2×)
[2]; isolate NCTC 13820, 6 hr, 4X MIC
  Colony forming units (CFU) of N. gonorrhoeae internalised in HeLa229 cells, colony count: 0 CFU (2×) and 1 CFU and 3 CFU

## O=C(O)c1cn(C2CC2)c2cc(N3CCNCC3)c(F)cc2c1=O [Ciprofloxacin, reference compound]
N. gonorrhoeae; 6926, 4x MIC
  Mutants (colonies): 4
N. gonorrhoeae; 6926, 8x MIC
  Mutants (colonies): 5
N. gonorrhoeae; 6926, 16x MIC
  Mutants (colonies): 1
N. gonorrhoeae; ATCC 700825, 4x MIC
  Mutants (colonies): 1
N. gonorrhoeae; ATCC 700825, 8x MIC
  Mutants (colonies): 0
N. gonorrhoeae; ATCC 700825, 16x MIC
  Mutants (colonies): 0

## COc1cc2c(c(OC)c1OC)-c1ccc(OC)c(=O)cc1[C@@H](NC(C)=O)CC2 [Colchicine]
Human lymphocytes; -S9, treatment 31 h, harvest 31 h, positive control 0.04 µg/mL (Debio 1453 study)
  Incidence of micronucleated cells: 1.85%
Human lymphocytes; -S9, treatment 31 h, harvest 31 h, positive control 0.08 µg/mL (Debio 1453P study)
  Incidence of micronucleated cells: 3.35%
Human lymphocytes; [7]
  Micronucleated cell percentage: 3.35%
  Micronucleated cells: 33 and 34
Human lymphocytes; [8]
  Micronucleated cell percentage: 1.85%
  Micronucleated cells: 19 and 18

## O=P1(N(CCCl)CCCl)NCCCO1 (centres unmarked) [Cyclophosphamide]
Human lymphocytes; +S9, treatment 3 h, harvest 32 h, positive control 15 µg/mL (Debio 1453P study)
  Incidence of micronucleated cells: 3.00%
Human lymphocytes; +S9, treatment 3 h, harvest 32.5 h, positive control 20 µg/mL (Debio 1453 study)
  Incidence of micronucleated cells: 7.15%
Human lymphocytes; [9]
  Micronucleated cell percentage: 3.00%
  Micronucleated cells: 21 and 39
Human lymphocytes; [10]
  Micronucleated cell percentage: 7.15%
  Micronucleated cells: 78 and 65

## CC(=O)NC[C@H]1CN(c2ccc(N3CCOCC3)c(F)c2)C(=O)O1 [Linezolid, reference compound]
S. aureus ATCC 29213
  CFU per thigh: 930 CFU per thigh and 510 CFU per thigh and 570 CFU per thigh and 750 CFU per thigh and 720 CFU per thigh
  Log10(CFU/Thigh): 2.968 Log10(CFU/Thigh) and 2.708 Log10(CFU/Thigh) and 2.756 Log10(CFU/Thigh) and 2.875 Log10(CFU/Thigh) and 2.857 Log10(CFU/Thigh)
